In US9227971B2, “Pyrazolo[1,5-a]pyrimidine compounds as mTOR inhibitors” (Merck Sharp & Dohme Corp., priority 2010, dated 2016):

How the values were obtained:
[1] = system: phosphorylated 4E-BP1 Thr37/46 (p4E-BP1 Thr37/46), mTORC1 activity, PC3 cells; assay: mTOR target engagement assay, immunofluorescent cell-based, p4E-BP1 Thr37/46 readout (mTORC1 activity); conditions: Homo sapiens, PC-3, PC3 cells, compound treatment ninety minutes at 37° C.; read-out: p4E-BP1 Thr37/46 IC50
How it was run: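 Seed PC3 cells overnight; treat with compound dilutions for ninety minutes at 37° C; fix with glyoxal and block; stain with anti-p4E-BP1 Thr37/46 overnight at 4° C, then fluorescent secondary; read fluorescence and fit IC50 against DMSO-only controls.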

[2] = system: phosphorylated AKT Ser473 (pAKT S473), mTORC2 activity, PC3 cells; assay: mTOR target engagement assay, immunofluorescent cell-based, pAKT S473 readout (mTORC2 activity); conditions: Homo sapiens, PC-3, PC3 cells, compound treatment ninety minutes at 37° C.
How it was run: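 After blocking, cells were stained overnight at 4 °C with anti-pAKT S473 antibody, then a fluorescent secondary; inhibition was read as reduced fluorescence intensity.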

Compound | IC50 [1] | IC50 [2]
CC(=O)c1c([C@@H]2C[C@H]3CC[C@@H](C2)N3C(=O)c2nnc[nH]2)nc2c(-c3ccc(-c4cccnc4F)nc3)cnn2c1N [Compound 1.1.62, 1-(5-((1R,3s,5S)-8-(4H-1,2,4-triazole-3-carbonyl)-8-azabicyclo[3.2.1]octan-3-yl)-7-amino-3-(2′-fluoro-2,3′-bipyridin-5-yl)pyrazolo[1,5-a]pyrimidin-6-yl)ethanone] | 1 to 100 nM | 1 to 100 nM
CC(=O)c1c([C@@H]2C[C@H]3CC[C@@H](C2)N3C(=O)c2nnc[nH]2)nc2c(-c3ccc(-c4nnn(C)n4)nc3)cnn2c1N [Compound 1.1.63, 1-(5-((1R,3s,5S)-8-(4H-1,2,4-triazole-3-carbonyl)-8-azabicyclo[3.2.1]octan-3-yl)-7-amino-3-(6-(2-methyl-2H-tetrazol-5-yl)pyridin-3-yl)pyrazolo[1,5-a]pyrimidin-6-yl)ethanone] | 1 to 100 nM | 1 to 100 nM
COc1c(F)cc(-c2ccc(-c3cnn4c(N)c(C(C)=O)c([C@@H]5C[C@H]6CC[C@@H](C5)N6C(=O)c5nnc[nH]5)nc34)cn2)cc1F [Compound 1.1.64, 1-(5-((1R,3s,5S)-8-(4H-1,2,4-triazole-3-carbonyl)-8-azabicyclo[3.2.1]octan-3-yl)-7-amino-3-(6-(3,5-difluoro-4-methoxyphenyl)pyridin-3-yl)pyrazolo[1,5-a]pyrimidin-6-yl)ethanone] | 100 to 1000 nM | 100 to 1000 nM
COc1ccc(-c2ccc(-c3cnn4c(N)c(C(C)=O)c([C@@H]5C[C@H]6CC[C@@H](C5)N6C(=O)c5nnc[nH]5)nc34)cn2)c(F)c1F [Compound 1.1.65, 1-(5-((1R,3s,5S)-8-(4H-1,2,4-triazole-3-carbonyl)-8-azabicyclo[3.2.1]octan-3-yl)-7-amino-3-(6-(2,3-difluoro-4-methoxyphenyl)pyridin-3-yl)pyrazolo[1,5-a]pyrimidin-6-yl)ethanone] | 1 to 100 nM | 1 to 100 nM
COCCOc1ccc(-c2ccc(-c3cnn4c(N)c(C(C)=O)c([C@@H]5C[C@H]6CC[C@@H](C5)N6C(=O)c5nnc[nH]5)nc34)cn2)cc1 [Compound 1.1.69, 1-(5-((1R,3s,5S)-8-(4H-1,2,4-triazole-3-carbonyl)-8-azabicyclo[3.2.1]octan-3-yl)-7-amino-3-(6-(4-(2-methoxyethoxy)phenyl)pyridin-3-yl)pyrazolo[1,5-a]pyrimidin-6-yl)ethanone] | 100 to 1000 nM | 100 to 1000 nM
CC(=O)c1c([C@@H]2C[C@H]3CC[C@@H](C2)N3C(=O)c2nnc[nH]2)nc2c(-c3ccc(-c4ccc5nn(C)cc5c4)nc3)cnn2c1N [Compound 1.1.70, 1-(5-((1R,3s,5S)-8-(4H-1,2,4-triazole-3-carbonyl)-8-azabicyclo[3.2.1]octan-3-yl)-7-amino-3-(6-(2-methyl-2H-indazol-5-yl)pyridin-3-yl)pyrazolo[1,5-a]pyrimidin-6-yl)ethanone] | 1 to 100 nM | 1 to 100 nM
CC(=O)c1c([C@@H]2C[C@H]3CC[C@@H](C2)N3C(=O)c2nnc[nH]2)nc2c(-c3ccc(-c4ccc5nc[nH]c5c4)nc3)cnn2c1N [Compound 1.1.71, 1-(3-(6-(1H-benzo[d]imidazol-6-yl)pyridin-3-yl)-5-((1R,3s,5S)-8-(4H-1,2,4-triazole-3-carbonyl)-8-azabicyclo[3.2.1]octan-3-yl)-7-aminopyrazolo[1,5-a]pyrimidin-6-yl)ethanone] | 100 to 1000 nM | 100 to 1000 nM
COc1cc(F)c(-c2ccc(-c3cnn4c(N)c(C(C)=O)c([C@@H]5C[C@H]6CC[C@@H](C5)N6C(=O)c5nnc[nH]5)nc34)cn2)cc1F [Compound 1.1.72, 1-(5-((1R,3s,5S)-8-(4H-1,2,4-triazole-3-carbonyl)-8-azabicyclo[3.2.1]octan-3-yl)-7-amino-3-(6-(2,5-difluoro-4-methoxyphenyl)pyridin-3-yl)pyrazolo[1,5-a]pyrimidin-6-yl)ethanone] | 1 to 100 nM | 1 to 100 nM
CCOc1ccc(-c2ccc(-c3cnn4c(N)c(C(C)=O)c([C@@H]5C[C@H]6CC[C@@H](C5)N6C(=O)c5nnc[nH]5)nc34)cn2)cc1 [Compound 1.1.73, 1-(5-((1R,3s,5S)-8-(4H-1,2,4-triazole-3-carbonyl)-8-azabicyclo[3.2.1]octan-3-yl)-7-amino-3-(6-(4-ethoxyphenyl)pyridin-3-yl)pyrazolo[1,5-a]pyrimidin-6-yl)ethanone] | 1 to 100 nM | 1 to 100 nM
CC(=O)c1c([C@@H]2C[C@H]3CC[C@@H](C2)N3C(=O)c2nnc[nH]2)nc2c(-c3ccc(-c4cc[nH]n4)nc3)cnn2c1N [Compound 1.1.74, 1-(3-(6-(1H-pyrazol-3-yl)pyridin-3-yl)-5-((1R,3s,5S)-8-(4H-1,2,4-triazole-3-carbonyl)-8-azabicyclo[3.2.1]octan-3-yl)-7-aminopyrazolo[1,5-a]pyrimidin-6-yl)ethanone] | 1 to 100 nM | 1 to 100 nM
CC(=O)c1c([C@@H]2C[C@H]3CC[C@@H](C2)N3C(=O)CO)nc2c(-c3ccc(-c4cc[nH]n4)nc3)cnn2c1N [Compound 1.1.75, 1-((1R,3s,5S)-3-(3-(6-(1H-pyrazol-3-yl)pyridin-3-yl)-6-acetyl-7-aminopyrazolo[1,5-a]pyrimidin-5-yl)-8-azabicyclo[3.2.1]octan-8-yl)-2-hydroxyethanone] | 1 to 100 nM | 1 to 100 nM
CC(=O)c1c([C@@H]2C[C@H]3CC[C@@H](C2)N3C(=O)c2nnc[nH]2)nc2c(-c3ccc(-c4ccncc4)nc3)cnn2c1N [Compound 1.1.76, 1-(3-(2,4′-bipyridin-5-yl)-5-((1R,3s,5S)-8-(4H-1,2,4-triazole-3-carbonyl)-8-azabicyclo[3.2.1]octan-3-yl)-7-aminopyrazolo[1,5-a]pyrimidin-6-yl)ethanone] | 100 to 1000 nM | 100 to 1000 nM
[2H]C([2H])([2H])Oc1ccc(-c2ccc(-c3cnn4c(N)c(C(C)=O)c([C@@H]5C[C@H]6CC[C@@H](C5)N6C(=O)c5nnc[nH]5)nc34)cn2)cc1 [Compound 1.1.77, 1-(5-((1R,3s,5S)-8-(4H-1,2,4-triazole-3-carbonyl)-8-azabicyclo[3.2.1]octan-3-yl)-7-amino-3-(6-(4-methoxy-(D3)-phenyl)pyridin-3-yl)pyrazolo[1,5-a]pyrimidin-6-yl)ethanone] | 1 to 100 nM | 1 to 100 nM
[2H]C([2H])([2H])Oc1ccc(-c2ccc(-c3cnn4c(N)c(C(C)=O)c([C@@H]5C[C@H]6CC[C@@H](C5)N6C(=O)CO)nc34)cn2)cc1 [Compound 1.1.78, 1-((1R,3s,5S)-3-(6-acetyl-7-amino-3-(6-(4-methoxy-(D3)-phenyl)pyridin-3-yl)pyrazolo[1,5-a]pyrimidin-5-yl)-8-azabicyclo[3.2.1]octan-8-yl)-2-hydroxyethanone] | 1 to 100 nM | 1 to 100 nM
CC(=O)c1c([C@@H]2C[C@H]3CC[C@@H](C2)N3C(=O)c2nnc[nH]2)nc2c(-c3ccc(C)nc3)cnn2c1N [Compound 1.1.79, 1-(5-((1R,3s,5S)-8-(4H-1,2,4-triazole-3-carbonyl)-8-azabicyclo[3.2.1]octan-3-yl)-7-amino-3-(6-methylpyridin-3-yl)pyrazolo[1,5-a]pyrimidin-6-yl)ethanone] | 1 to 100 nM | 1 to 100 nM
CC(=O)c1c([C@@H]2C[C@H]3CC[C@@H](C2)N3C(=O)c2nnc[nH]2)nc2c(-c3cccnc3)cnn2c1N [Compound 1.1.80, 1-(5-((1R,3s,5S)-8-(4H-1,2,4-triazole-3-carbonyl)-8-azabicyclo[3.2.1]octan-3-yl)-7-amino-3-(pyridin-3-yl)pyrazolo[1,5-a]pyrimidin-6-yl)ethanone] | 100 to 1000 nM | 100 to 1000 nM
[2H]C([2H])([2H])n1ccc(-c2ccc(-c3cnn4c(N)c(C(C)=O)c([C@@H]5C[C@H]6CC[C@@H](C5)N6C(=O)c5nnc[nH]5)nc34)cn2)n1 [Compound 1.1.82, 1-(5-((1R,3s,5S)-8-(4H-1,2,4-triazole-3-carbonyl)-8-azabicyclo[3.2.1]octan-3-yl)-7-amino-3-(6-(1-methyl-(D3)-1H-pyrazol-3-yl)pyridin-3-yl)pyrazolo[1,5-a]pyrimidin-6-yl)ethanone] | 100 to 1000 nM | 100 to 1000 nM
CCC(=O)c1ccc(-c2cnn3c(N)c(C(C)=O)c([C@@H]4C[C@H]5CC[C@@H](C4)N5C(=O)c4nnc[nH]4)nc23)cn1 [Compound 1.1.83, 1-(5-(5-((1R,3s,5S)-8-(4H-1,2,4-triazole-3-carbonyl)-8-azabicyclo[3.2.1]octan-3-yl)-6-acetyl-7-aminopyrazolo[1,5-a]pyrimidin-3-yl)pyridin-2-yl)propan-1-one] | 100 to 1000 nM | 100 to 1000 nM
[2H]C([2H])([2H])n1ccc(-c2ccc(-c3cnn4c(N)c(C(C)=O)c([C@@H]5C[C@H]6CC[C@@H](C5)N6C(=O)CO)nc34)cn2)n1 [Compound 1.1.84, 1-((1R,3s,5S)-3-(6-acetyl-7-amino-3-(6-(1-methyl-(D3)-1H-pyrazol-3-yl)pyridin-3-yl)pyrazolo[1,5-a]pyrimidin-5-yl)-8-azabicyclo[3.2.1]octan-8-yl)-2-hydroxyethanone] | 1 to 100 nM | 1 to 100 nM
CCC(O)(CC)c1ccc(-c2cnn3c(N)c(C(C)=O)c([C@@H]4C[C@H]5CC[C@@H](C4)N5C(=O)c4nnc[nH]4)nc23)cn1 [Compound 1.1.85, 1-(5-((1R,3s,5S)-8-(4H-1,2,4-triazole-3-carbonyl)-8-azabicyclo[3.2.1]octan-3-yl)-7-amino-3-(6-(3-hydroxypentan-3-yl)pyridin-3-yl)pyrazolo[1,5-a]pyrimidin-6-yl)ethanone] | 1000 to 10000 nM | 1000 to 10000 nM
